{"source": "the supplement of paper PMC10307832", "experiment_in_all_cases": "relative viability (nuclei count vs DMSO), 5 days (fraction); higher = more cells survive", "key": {"[1]": {"tested_on": "201T", "how_it_was_run": "(§1)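 Relative viability is defined as nuclei in treated wells over nuclei in vehicle wells. Duplicate plates were run and medians reported. Lung cancer cell lines in 1536-well plates were dosed by pin tool one day after seeding, with one drug or with a fixed anchor-drug dose plus five library-drug doses (not always all listed) in √10 steps, and nuclei were counted after 5 days.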"}, "[2]": {"tested_on": "BEN", "how_it_was_run": "as §1"}, "[3]": {"tested_on": "EMC-BAC-2", "how_it_was_run": "as §1"}, "[4]": {"tested_on": "HARA", "how_it_was_run": "as §1"}, "[5]": {"tested_on": "HCC-44", "how_it_was_run": "as §1"}, "[6]": {"tested_on": "LCLC-103H", "how_it_was_run": "as §1"}, "[7]": {"tested_on": "LOU-NH91", "how_it_was_run": "as §1"}, "[8]": {"tested_on": "NCI-H1993", "how_it_was_run": "as §1"}, "[9]": {"tested_on": "NCI-H2023", "how_it_was_run": "as §1"}, "[10]": {"tested_on": "NCI-H2087", "how_it_was_run": "as §1"}, "[11]": {"tested_on": "NCI-H2126", "how_it_was_run": "as §1"}, "[12]": {"tested_on": "NCI-H2347", "how_it_was_run": "as §1"}, "[13]": {"tested_on": "NCI-H23", "how_it_was_run": "as §1"}, "[14]": {"tested_on": "NCI-H3122", "how_it_was_run": "as §1"}, "[15]": {"tested_on": "NCI-H441", "how_it_was_run": "as §1"}, "[16]": {"tested_on": "NCI-H596", "how_it_was_run": "as §1"}, "[17]": {"tested_on": "NCI-H647", "how_it_was_run": "as §1"}, "[18]": {"tested_on": "NCI-H650", "how_it_was_run": "as §1"}, "[19]": {"tested_on": "NCI-H727", "how_it_was_run": "as §1"}, "[20]": {"tested_on": "NCI-H838", "how_it_was_run": "as §1"}}, "data": [{"smiles": "Cc1sc2c(c1C)C(c1ccc(Cl)cc1)=N[C@@H](CC(=O)OC(C)(C)C)c1nnc(C)n1-2", "note": "[JQ1] + CC(C)C[C@H](NC(=O)[C@H](Cc1ccccc1)NC(=O)c1cnccn1)B(O)O [Bortezomib] (partner 0.002 µM)", "values": [{"measurement": "relative viability", "setting": "[1]; first compound 0.04 µM", "result": 1.14}, {"measurement": "relative viability", "setting": "[1]; first compound 0.1265 µM", "result": 0.643}, {"measurement": "relative viability", "setting": "[1]; first compound 0.4 µM", "result": 1.02}, {"measurement": "relative viability", "setting": "[1]; first compound 1.265 µM", "result": 0.859}, {"measurement": "relative viability", "setting": "[1]; first compound 4 µM", "result": 0.768}, {"measurement": "relative viability", "setting": "[2]; first compound 0.04 µM", "result": 0.627}, {"measurement": "relative viability", "setting": "[2]; first compound 0.1265 µM", "result": 0.605}, {"measurement": "relative viability", "setting": "[2]; first compound 0.4 µM", "result": 0.463}, {"measurement": "relative viability", "setting": "[2]; first compound 1.265 µM", "result": 0.322}, {"measurement": "relative viability", "setting": "[2]; first compound 4 µM", "result": 0.221}, {"measurement": "relative viability", "setting": "[3]; first compound 0.04 µM", "result": 1.09}, {"measurement": "relative viability", "setting": "[3]; first compound 0.1265 µM", "result": 0.961}, {"measurement": "relative viability", "setting": "[3]; first compound 0.4 µM", "result": 0.91}, {"measurement": "relative viability", "setting": "[3]; first compound 1.265 µM", "result": 0.621}, {"measurement": "relative viability", "setting": "[3]; first compound 4 µM", "result": 0.544}, {"measurement": "relative viability", "setting": "[4]; first compound 0.04 µM", "result": 1.08}, {"measurement": "relative viability", "setting": "[4]; first compound 0.1265 µM", "result": 0.725}, {"measurement": "relative viability", "setting": "[4]; first compound 0.4 µM", "result": 0.611}, {"measurement": "relative viability", "setting": "[4]; first compound 1.265 µM", "result": 0.433}, {"measurement": "relative viability", "setting": "[4]; first compound 4 µM", "result": 0.173}, {"measurement": "relative viability", "setting": "[5]; first compound 0.04 µM", "result": 0.941}, {"measurement": "relative viability", "setting": "[5]; first compound 0.1265 µM", "result": 0.702}, {"measurement": "relative viability", "setting": "[5]; first compound 0.4 µM", "result": 0.744}, {"measurement": "relative viability", "setting": "[5]; first compound 1.265 µM", "result": 0.461}, {"measurement": "relative viability", "setting": "[5]; first compound 4 µM", "result": 0.224}, {"measurement": "relative viability", "setting": "[6]; first compound 0.04 µM", "result": 1.04}, {"measurement": "relative viability", "setting": "[6]; first compound 0.1265 µM", "result": 1.01}, {"measurement": "relative viability", "setting": "[6]; first compound 0.4 µM", "result": 1.06}, {"measurement": "relative viability", "setting": "[6]; first compound 1.265 µM", "result": 0.557}, {"measurement": "relative viability", "setting": "[6]; first compound 4 µM", "result": 0.439}, {"measurement": "relative viability", "setting": "[7]; first compound 0.04 µM", "result": 0.525}, {"measurement": "relative viability", "setting": "[7]; first compound 0.1265 µM", "result": 0.476}, {"measurement": "relative viability", "setting": "[7]; first compound 0.4 µM", "result": 0.428}, {"measurement": "relative viability", "setting": "[7]; first compound 1.265 µM", "result": 0.3}, {"measurement": "relative viability", "setting": "[7]; first compound 4 µM", "result": 0.327}, {"measurement": "relative viability", "setting": "[8]; first compound 0.04 µM", "result": 1.08}, {"measurement": "relative viability", "setting": "[8]; first compound 0.1265 µM", "result": 1.13}, {"measurement": "relative viability", "setting": "[8]; first compound 0.4 µM", "result": 1.04}, {"measurement": "relative viability", "setting": "[8]; first compound 1.265 µM", "result": 0.738}, {"measurement": "relative viability", "setting": "[8]; first compound 4 µM", "result": 0.458}, {"measurement": "relative viability", "setting": "[9]; first compound 0.04 µM", "result": 0.966}, {"measurement": "relative viability", "setting": "[9]; first compound 0.1265 µM", "result": 0.57}, {"measurement": "relative viability", "setting": "[9]; first compound 0.4 µM", "result": 0.437}, {"measurement": "relative viability", "setting": "[9]; first compound 1.265 µM", "result": 0.263}, {"measurement": "relative viability", "setting": "[9]; first compound 4 µM", "result": 0.193}, {"measurement": "relative viability", "setting": "[10]; first compound 0.04 µM", "result": 0.832}, {"measurement": "relative viability", "setting": "[10]; first compound 0.4 µM", "result": 0.943}, {"measurement": "relative viability", "setting": "[10]; first compound 1.265 µM", "result": 0.553}, {"measurement": "relative viability", "setting": "[10]; first compound 4 µM", "result": 0.416}, {"measurement": "relative viability", "setting": "[11]; first compound 0.04 µM", "result": 1.08}, {"measurement": "relative viability", "setting": "[11]; first compound 0.1265 µM", "result": 1.01}, {"measurement": "relative viability", "setting": "[11]; first compound 0.4 µM", "result": 1.14}, {"measurement": "relative viability", "setting": "[11]; first compound 1.265 µM", "result": 0.981}, {"measurement": "relative viability", "setting": "[11]; first compound 4 µM", "result": 0.966}, {"measurement": "relative viability", "setting": "[12]; first compound 0.04 µM", "result": 1.13}, {"measurement": "relative viability", "setting": "[12]; first compound 0.1265 µM", "result": 0.934}, {"measurement": "relative viability", "setting": "[12]; first compound 0.4 µM", "result": 0.841}, {"measurement": "relative viability", "setting": "[12]; first compound 1.265 µM", "result": 0.564}, {"measurement": "relative viability", "setting": "[12]; first compound 4 µM", "result": 0.404}, {"measurement": "relative viability", "setting": "[13]; first compound 0.04 µM", "result": 1.07}, {"measurement": "relative viability", "setting": "[13]; first compound 0.1265 µM", "result": 0.86}, {"measurement": "relative viability", "setting": "[13]; first compound 0.4 µM", "result": 0.666}, {"measurement": "relative viability", "setting": "[13]; first compound 1.265 µM", "result": 0.241}, {"measurement": "relative viability", "setting": "[13]; first compound 4 µM", "result": 0.332}, {"measurement": "relative viability", "setting": "[14]; first compound 0.04 µM", "result": 1.01}, {"measurement": "relative viability", "setting": "[14]; first compound 0.1265 µM", "result": 0.998}, {"measurement": "relative viability", "setting": "[14]; first compound 0.4 µM", "result": 1.03}, {"measurement": "relative viability", "setting": "[14]; first compound 1.265 µM", "result": 0.996}, {"measurement": "relative viability", "setting": "[14]; first compound 4 µM", "result": 0.905}, {"measurement": "relative viability", "setting": "[15]; first compound 0.04 µM", "result": 0.611}, {"measurement": "relative viability", "setting": "[15]; first compound 0.1265 µM", "result": 0.363}, {"measurement": "relative viability", "setting": "[15]; first compound 0.4 µM", "result": 0.443}, {"measurement": "relative viability", "setting": "[15]; first compound 1.265 µM", "result": 0.189}, {"measurement": "relative viability", "setting": "[15]; first compound 4 µM", "result": 0.174}, {"measurement": "relative viability", "setting": "[16]; first compound 0.04 µM", "result": 0.945}, {"measurement": "relative viability", "setting": "[16]; first compound 0.1265 µM", "result": 0.781}, {"measurement": "relative viability", "setting": "[16]; first compound 0.4 µM", "result": 0.955}, {"measurement": "relative viability", "setting": "[16]; first compound 1.265 µM", "result": 0.673}, {"measurement": "relative viability", "setting": "[16]; first compound 4 µM", "result": 0.344}, {"measurement": "relative viability", "setting": "[17]; first compound 0.04 µM", "result": 0.678}, {"measurement": "relative viability", "setting": "[17]; first compound 0.1265 µM", "result": 0.521}, {"measurement": "relative viability", "setting": "[17]; first compound 0.4 µM", "result": 0.346}, {"measurement": "relative viability", "setting": "[17]; first compound 1.265 µM", "result": 0.0716}, {"measurement": "relative viability", "setting": "[17]; first compound 4 µM", "result": 0.102}, {"measurement": "relative viability", "setting": "[18]; first compound 0.04 µM", "result": 0.742}, {"measurement": "relative viability", "setting": "[18]; first compound 0.1265 µM", "result": 0.351}, {"measurement": "relative viability", "setting": "[18]; first compound 0.4 µM", "result": 0.432}, {"measurement": "relative viability", "setting": "[18]; first compound 1.265 µM", "result": 0.183}, {"measurement": "relative viability", "setting": "[18]; first compound 4 µM", "result": 0.184}, {"measurement": "relative viability", "setting": "[19]; first compound 0.04 µM", "result": 0.756}, {"measurement": "relative viability", "setting": "[19]; first compound 0.1265 µM", "result": 1.01}, {"measurement": "relative viability", "setting": "[19]; first compound 0.4 µM", "result": 0.588}, {"measurement": "relative viability", "setting": "[19]; first compound 1.265 µM", "result": 0.38}, {"measurement": "relative viability", "setting": "[19]; first compound 4 µM", "result": 0.395}, {"measurement": "relative viability", "setting": "[20]; first compound 0.04 µM", "result": 0.69}, {"measurement": "relative viability", "setting": "[20]; first compound 0.1265 µM", "result": 0.426}, {"measurement": "relative viability", "setting": "[20]; first compound 0.4 µM", "result": 0.31}, {"measurement": "relative viability", "setting": "[20]; first compound 1.265 µM", "result": 0.208}, {"measurement": "relative viability", "setting": "[20]; first compound 4 µM", "result": 0.154}]}]}
